Laboratory results reported in patent US8629300B2, “Arylamine-substituted divinyl fluorenes and their use for electrophotographic applications, and for OLEDs (organic light emitting devices)” (Sensient Imaging Technologies GmbH, priority 2006, dated 2014).

Test: Solubility analysis in methylen chloride or THF
Type: physicochemical
Experimental: Compound 12 complies with the solubility requirements set by the industry of 1 g substance/6 ml methylen chloride or THF. This compound was scaled up to 35 g. The compound was brought to an HPLC purity of >99.5% by using conventional purification methods, like e.g. recrystallization or column chromatography.

Cc1ccc(N(c2ccc(C)cc2)c2ccc(/C=C/c3ccc4c(c3)C(C)(C)c3cc(/C=C/c5ccc(N(c6ccc(C)cc6)c6ccc(C)cc6)cc5)ccc3-4)cc2)cc1 [Compound 12, 2,7-Bis-(4-di-p-tolylaminophenylethenyl)-9,9-dimethyl-9H-fluorene]
solubility (complies with the solubility requirements set by the industry): ≥ 1 g substance/6 ml
